Experimental data from US20230172189A1, “Methods for Extending the Shelf-life of Stored Donor Blood and/or Red Blood Cells and Treated Red Blood Cell Compositions Produced Thereby” (Ohio University, priority 2020, published 2023).

Experiments:
[1] = test system: RBCs; assay: Hemolysis of RBCs during lipid exchange (UV-Vis absorbance at 541 nm); format: cell-based; conditions: for hemolysis of RBCs during lipid exchange: exogenous lipid loaded into MαCD, one hour incubation
Description: The release of hemoglobin from the RBCs is considered as a sign of disrupting the cell membrane and consequently extracting the inner leaflet.
The hemolysis of RBCs during lipid exchange was measured using UV-Vis spectroscopy.
Presence of hemoglobin in the exchange solution is believed to be a disruption of the RBCs, lead to extracting the inner leaflet of the membrane. To monitor the amount of hemolysis after the exchange, the cells were centrifuged at 750×g for 5 minutes, 200 μL of the supernatant was collected, and its absorbance at 541 nm was measured using a plate reader. RBCs suspended in DPBS and water for 1 hour, at the same hematocrit concentrations as the ones used for exchange experiments, were used as negative and positive controls for the hemolysis. Both controls were also centrifuged at 750×g for 5 minutes.

[2] = test system: RBCs; assay: Confocal microscopy of RBCs after exchange with a fluorescent lipid; format: cell-based; conditions: 19:1 POPS:NBD-PE, one hour incubation, with or without MαCD
Description: To confirm that MαCD mediates the lipid exchange and that the lipids are exchanged with the outer leaflet only, confocal microscopy was performed on the RBCs after the exchange. A mixture of POPS and 1,2-dipalmitoyl-sn-glycero-3-phosphoethanolamine-N-(7-nitro-2-1,3-benzoxadiazol-4-yl) (NBD-PE) with a molar ratio 19:1 POPS:NBD-PE was used. RBCs are incubated for one hour with the lipid mixture without MαCD (FIG. 2A) or with the lipid mixture loaded into MαCD (FIG. 2B).
Delivering of the phospholipids to the membrane was studied using fluorescence. A quenching agent was used to diminish the fluorescence to examine whether the lipids were delivered to the outer or inner leaflet. Organic solutions of a fluorescent phospholipid (NBD-PE) and POPS were mixed to a molar ratio of 1:19 NBD-PE:POPS. The other steps prior to the exchange experiment were as mentioned before. After the exchange, the cells were centrifuged at 750×g for 5 minutes, the precipitated RBCs were collected, re-suspended in 10% sucrose in DPBS, loaded onto a glass slide, and imaged using a confocal microscope. Sodium dithionite solution was made to a concentration of 50 mM and was added to an aliquot of the exchanged RBCs 1 minute prior to loading onto glass slides and imaging.

| Compound | hemolysis of RBCs during lipid exchange [1] | capability of mediating the exchange process ([1]; two MαCD concentrations tested during optimisation) | mediation of lipid exchange with RBC outer leaflet [2] |
| --- | --- | --- | --- |
| CCCCCCCC/C=C\CCCCCCCC(=O)OC(COC(=O)CCCCCCCCCCCCCCC)COP(=O)([O-])OCC[N+](C)(C)C (stereo not shown) [POPC, 1-palmitoyl-2-oleoyl-glycero-3-phosphocholine] | lowest hemolysis |  |  |
| CCCCCCCC/C=C\CCCCCCCC(=O)O[C@H](COC(=O)CCCCCCCCCCCCCCC)COP(=O)(O)OC[C@H](N)C(=O)O [POPS, 1-palmitoyl-2-oleoyl-sn-glycero-3-phospho-L-serine] | lowest hemolysis |  |  |
| methyl-α-cyclodextrin [MαCD] |  | both concentrations were capable of mediating the exchange process | lipid exchange only occurs in the presence of MαCD |
